According to US20240174618A1, “SUBSTITUTED (2-HETEROARYLOXYPHENYL)SULFONATES, SALTS THEREOF AND THEIR USE AS HERBICIDAL AGENTS” (Bayer Aktiengesellschaft, priority 2021, published 2024):

Key:
Type in all cases: in vivo
Kochia scoparia (KCHSC) [1] = assay: B. Herbicidal post-emergence efficacy, KCHSC; details: for Post-emergence efficacy against KCHSC in %: rated visually after about 3 weeks; for Post-emergence efficacy against KCHSC: 1280 g/ha
In short: (§1)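 Weeds grown in sandy loam in greenhouse and sprayed at the one-leaf stage, 2–3 weeks after sowing, with WP or EC formulations plus 0.5% additive at 600 L/ha water. Injury rated visually versus untreated controls after about 3 weeks (100% = dead, 0% = like control); rates up to 1280 g/ha.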

Stellaria media (STEME) [2] = assay: A. Herbicidal pre-emergence efficacy, STEME
In short: (§2)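 Applied before emergence onto covering soil at rates of 1280 g/ha or less, using 600 L/ha spray water with 0.5% additive. Scoring: visual % efficacy after ~3 weeks, greenhouse.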

Poa annua (POAAN) [3] = assay: A. Herbicidal pre-emergence efficacy, POAAN
In short: as §2

[4] = test system: Abutilon theophrasti (ABUTH); assay: B. Herbicidal post-emergence efficacy, ABUTH; details: rated visually after about 3 weeks
In short: as §1

[5] = test system: Amaranthus retroflexus (AMARE); assay: A. Herbicidal pre-emergence efficacy, AMARE
In short: as §2

Kochia scoparia (KCHSC) [6] = assay: A. Herbicidal pre-emergence efficacy, KCHSC; details: pre-emergence
In short: as §2

[7] = test system: Echinochloa crus-galli (ECHCG); assay: A. Herbicidal pre-emergence efficacy, ECHCG; details: 1280 g/ha; scored visually after about 3 weeks vs untreated controls
In short: as §2

Veronica persica (VERPE) [8] = assay: B. Herbicidal post-emergence efficacy, VERPE
In short: as §1

Veronica persica (VERPE) [9] = assay: A. Herbicidal pre-emergence efficacy, VERPE
In short: as §2

[10] = test system: Echinochloa crus-galli (ECHCG); assay: B. Herbicidal post-emergence efficacy, ECHCG; details: 1280 g/ha, rated visually after about 3 weeks
In short: as §1

[11] = test system: Digitaria sanguinalis (DIGSA); assay: A. Herbicidal pre-emergence efficacy, DIGSA; details: scored visually after about 3 weeks vs untreated controls
In short: as §2

[12] = test system: Amaranthus retroflexus (AMARE); assay: B. Herbicidal post-emergence efficacy, AMARE
In short: as §1

Stellaria media (STEME) [13] = assay: B. Herbicidal post-emergence efficacy, STEME
In short: as §1

Setaria viridis (SETVI) [14] = assay: A. Herbicidal pre-emergence efficacy, SETVI
In short: as §2

[15] = test system: Digitaria sanguinalis (DIGSA); assay: B. Herbicidal post-emergence efficacy, DIGSA; details: rated visually after about 3 weeks
Procedure: (§3) Seeds of mono- and dicotyledonous weed plants were placed in plastic pots in sandy loam soil (doubly sown with in each case one species of mono- or dicotyledonous weed plants per pot), covered with soil and cultivated in a greenhouse under controlled growth conditions. 2 to 3 weeks after sowing, the test plants were treated at the one-leaf stage. The compounds of the invention, formulated in the form of wettable powders (WP) or as emulsion concentrates (EC), were applied onto the green parts of the plants as aqueous suspension or emulsion with addition of 0.5% additive at a water application rate of 600 liters per hectare (converted). After the test plants had been kept in the greenhouse under optimum growth conditions for about 3 weeks, the activity of the preparations was rated visually in comparison to untreated controls.
(§4) For example, • 100% efficacy=plants have died, • 0% efficacy=like untreated control plants
(§5) Tables B1a to B12c below show the effects of selected inventive compounds of the general formula (I) according to table 1 on various harmful plants at an application rate corresponding to 1280 g/ha or less, which were obtained by the experimental procedure mentioned above.

Setaria viridis (SETVI) [16] = assay: B. Herbicidal post-emergence efficacy, SETVI; details: 1280 g/ha
Procedure: as §3, §4, §5

[17] = test system: Abutilon theophrasti (ABUTH); assay: A. Herbicidal pre-emergence efficacy, ABUTH; details: 1280 g/ha; scored visually after about 3 weeks vs untreated controls
In short: as §2

Poa annua (POAAN) [18] = assay: B. Herbicidal post-emergence efficacy, POAAN
In short: as §1

SMILES	Post-emergence efficacy against KCHSC in % (Kochia scoparia (KCHSC) [1]; 320 g/ha)	Post-emergence efficacy against KCHSC (Kochia scoparia (KCHSC) [1])	Pre-emergence efficacy against STEME (Stellaria media (STEME) [2]; dosage 1280 g/ha)	Pre-emergence efficacy against POAAN (Poa annua (POAAN) [3]; dosage 1280 g/ha)	Post-emergence efficacy against ABUTH in % ([4]; 1280 g/ha)	Pre-emergence efficacy against AMARE in % ([5]; 320 g/ha)	Pre-emergence efficacy against AMARE in % ([5]; 1280 g/ha)	Pre-emergence efficacy against KCHSC (Kochia scoparia (KCHSC) [6]; dosage 1280 g/ha)	Pre-emergence efficacy against ECHCG [7]	Post-emergence efficacy against VERPE (Veronica persica (VERPE) [8]; 320 g/ha)	Post-emergence efficacy against VERPE (Veronica persica (VERPE) [8]; 1280 g/ha)	Pre-emergence efficacy against VERPE in % (Veronica persica (VERPE) [9]; 1280 g/ha)	Post-emergence efficacy against ECHCG in % [10]	Pre-emergence efficacy against DIGSA ([11]; 1280 g/ha)	Post-emergence efficacy against AMARE ([12]; 320 g/ha)	Post-emergence efficacy against AMARE ([12]; 1280 g/ha)	Post-emergence efficacy against STEME (Stellaria media (STEME) [13]; 1280 g/ha)	Pre-emergence efficacy against SETVI (Setaria viridis (SETVI) [14]; dosage 320 g/ha)	Pre-emergence efficacy against SETVI (Setaria viridis (SETVI) [14]; dosage 1280 g/ha)	Post-emergence efficacy against DIGSA in % ([15]; 1280 g/ha)	also measured
O=S(=O)(CCCC(F)(F)F)Oc1ccccc1Oc1ccc(Cl)cn1 [Example I-26]	90%	90%	90%	100%	90%	90%	100%	90%	90%	90%	90%	100%	90%	100%	90%	90%	90%	90%	100%	90%	Pre-emergence efficacy against POAAN (Poa annua (POAAN) [3]; dosage 320 g/ha): 90%
N#Cc1cccc(Oc2ncc(Cl)cn2)c1OS(=O)(=O)CCCCl [Example I-80]	90%	90%	100%	90%	100%	90%	100%	100%	90%	90%	100%	100%	100%	100%	100%	100%	100%	90%	100%	90%	Post-emergence efficacy against SETVI (Setaria viridis (SETVI) [16]): 90%; Pre-emergence efficacy against STEME (Stellaria media (STEME) [2]; dosage 320 g/ha): 100%; Pre-emergence efficacy against POAAN (Poa annua (POAAN) [3]; dosage 320 g/ha): 90%; Post-emergence efficacy against ABUTH in % ([4]; 80 g/ha): 90%; Post-emergence efficacy against ABUTH in % ([4]; 320 g/ha): 90%; Pre-emergence efficacy against ABUTH [17]: 90%; Pre-emergence efficacy against AMARE in % ([5]; 80 g/ha): 90%; Pre-emergence efficacy against KCHSC (Kochia scoparia (KCHSC) [6]; dosage 320 g/ha): 90%; Post-emergence efficacy against VERPE (Veronica persica (VERPE) [8]; 80 g/ha): 90%; Pre-emergence efficacy against VERPE in % (Veronica persica (VERPE) [9]; 320 g/ha): 90%; Pre-emergence efficacy against DIGSA ([11]; 320 g/ha): 90%; Post-emergence efficacy against AMARE ([12]; 80 g/ha): 100%; Post-emergence efficacy against STEME (Stellaria media (STEME) [13]; 80 g/ha): 90%; Post-emergence efficacy against STEME (Stellaria media (STEME) [13]; 320 g/ha): 100%; Post-emergence efficacy against POAAN (Poa annua (POAAN) [18]; 1280 g/ha): 90%
N#Cc1cccc(Oc2ncc(Cl)cn2)c1OS(=O)(=O)CC1CC(F)(F)C1 [Example I-79]	100%	100%	100%	90%	100%	100%	100%	100%	90%	100%	100%	100%	100%	100%	100%	100%	100%	90%	100%	100%	Post-emergence efficacy against KCHSC in % (Kochia scoparia (KCHSC) [1]; 80 g/ha): 90%; Post-emergence efficacy against SETVI (Setaria viridis (SETVI) [16]): 90%; Pre-emergence efficacy against STEME (Stellaria media (STEME) [2]; dosage 320 g/ha): 90%; Post-emergence efficacy against ABUTH in % ([4]; 320 g/ha): 90%; Pre-emergence efficacy against ABUTH [17]: 90%; Pre-emergence efficacy against AMARE in % ([5]; 80 g/ha): 90%; Pre-emergence efficacy against KCHSC (Kochia scoparia (KCHSC) [6]; dosage 320 g/ha): 90%; Post-emergence efficacy against VERPE (Veronica persica (VERPE) [8]; 80 g/ha): 100%; Pre-emergence efficacy against VERPE in % (Veronica persica (VERPE) [9]; 320 g/ha): 100%; Pre-emergence efficacy against DIGSA ([11]; 320 g/ha): 100%; Post-emergence efficacy against AMARE ([12]; 80 g/ha): 90%; Post-emergence efficacy against STEME (Stellaria media (STEME) [13]; 80 g/ha): 90%; Post-emergence efficacy against STEME (Stellaria media (STEME) [13]; 320 g/ha): 100%; Post-emergence efficacy against DIGSA in % ([15]; 320 g/ha): 90%
O=S(=O)(CC1CC(F)(F)C1)Oc1c(Br)cccc1Oc1ncc(Cl)cn1 [Example I-75]	100%	100%	100%	100%	100%	90%	100%	100%	100%	100%	100%	100%	90%	100%	100%	100%	100%	90%	100%	90%	Post-emergence efficacy against KCHSC in % (Kochia scoparia (KCHSC) [1]; 80 g/ha): 90%; Pre-emergence efficacy against STEME (Stellaria media (STEME) [2]; dosage 320 g/ha): 100%; Pre-emergence efficacy against POAAN (Poa annua (POAAN) [3]; dosage 320 g/ha): 100%; Post-emergence efficacy against ABUTH in % ([4]; 80 g/ha): 90%; Post-emergence efficacy against ABUTH in % ([4]; 320 g/ha): 90%; Pre-emergence efficacy against ABUTH [17]: 100%; Pre-emergence efficacy against AMARE in % ([5]; 80 g/ha): 90%; Pre-emergence efficacy against KCHSC (Kochia scoparia (KCHSC) [6]; dosage 320 g/ha): 90%; Post-emergence efficacy against VERPE (Veronica persica (VERPE) [8]; 80 g/ha): 100%; Pre-emergence efficacy against VERPE in % (Veronica persica (VERPE) [9]; 320 g/ha): 90%; Pre-emergence efficacy against DIGSA ([11]; 320 g/ha): 90%; Post-emergence efficacy against AMARE ([12]; 80 g/ha): 100%; Post-emergence efficacy against STEME (Stellaria media (STEME) [13]; 320 g/ha): 100%; Post-emergence efficacy against POAAN (Poa annua (POAAN) [18]; 320 g/ha): 90%; Post-emergence efficacy against POAAN (Poa annua (POAAN) [18]; 1280 g/ha): 90%
